Experimental data published in BindingDB's records for doi:10.1124/jpet.301.2.527 (Mercer University, 2002).

Assays:
[1] = target: Sodium-dependent dopamine transporter (Rattus norvegicus, UniProt P23977)
[2] = target: Sodium-dependent serotonin transporter (Rattus norvegicus, UniProt P31652)
Sodium-dependent serotonin transporter, sequence (P31652 whole entry): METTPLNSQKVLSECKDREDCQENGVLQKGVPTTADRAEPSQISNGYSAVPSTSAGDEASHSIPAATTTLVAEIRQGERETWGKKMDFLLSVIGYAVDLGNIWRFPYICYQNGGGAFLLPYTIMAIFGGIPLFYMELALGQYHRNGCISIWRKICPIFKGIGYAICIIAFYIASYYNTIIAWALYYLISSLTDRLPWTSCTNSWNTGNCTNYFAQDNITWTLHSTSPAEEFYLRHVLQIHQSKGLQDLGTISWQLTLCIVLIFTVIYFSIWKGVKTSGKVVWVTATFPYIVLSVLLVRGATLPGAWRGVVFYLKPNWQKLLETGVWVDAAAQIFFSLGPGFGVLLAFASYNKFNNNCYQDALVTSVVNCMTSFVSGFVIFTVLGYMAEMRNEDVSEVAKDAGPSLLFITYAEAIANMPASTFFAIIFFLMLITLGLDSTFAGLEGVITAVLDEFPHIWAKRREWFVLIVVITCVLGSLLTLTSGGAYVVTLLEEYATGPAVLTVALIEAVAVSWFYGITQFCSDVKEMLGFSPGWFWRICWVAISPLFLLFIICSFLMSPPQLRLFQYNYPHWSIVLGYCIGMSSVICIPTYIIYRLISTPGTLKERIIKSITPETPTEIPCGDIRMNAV

Sodium-dependent dopamine transporter, sequence (P23977 whole entry): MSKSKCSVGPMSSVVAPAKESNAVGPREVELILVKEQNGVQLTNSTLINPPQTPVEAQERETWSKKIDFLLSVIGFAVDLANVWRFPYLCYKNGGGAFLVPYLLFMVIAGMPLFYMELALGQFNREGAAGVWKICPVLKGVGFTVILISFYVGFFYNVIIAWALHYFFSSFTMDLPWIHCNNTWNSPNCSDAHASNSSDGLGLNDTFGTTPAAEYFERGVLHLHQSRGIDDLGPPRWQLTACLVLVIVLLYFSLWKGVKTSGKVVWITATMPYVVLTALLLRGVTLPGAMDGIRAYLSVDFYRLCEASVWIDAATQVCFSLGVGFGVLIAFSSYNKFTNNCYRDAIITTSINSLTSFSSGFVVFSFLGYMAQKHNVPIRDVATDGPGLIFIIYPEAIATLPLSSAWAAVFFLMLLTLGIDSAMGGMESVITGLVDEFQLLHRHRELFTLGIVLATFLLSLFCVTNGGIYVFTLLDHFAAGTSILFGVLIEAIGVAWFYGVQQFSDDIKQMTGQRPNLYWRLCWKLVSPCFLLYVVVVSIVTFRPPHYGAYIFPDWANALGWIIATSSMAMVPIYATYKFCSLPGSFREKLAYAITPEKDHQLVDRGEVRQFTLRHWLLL

Row | SMILES | Ki [1] | Ki [2]
1 | CCCCN1CCCC[C@H]1[C@H](COC)c1ccccc1 [TROMeNBn] | 17.8 nM | 166 nM
2 | COC(=O)[C@H](c1cccc(Cl)c1)[C@@H]1CCCCN1C [3CTMPNMe] | 160 nM | > 10000 nM
3 | COC(=O)[C@H](c1ccc(C)cc1)[C@@H]1CCCCN1 [4MeTMP] | 33 nM | > 10000 nM
4 | COC(=O)[C@H](c1ccc(F)cc1)[C@@H]1CCCCN1 [4FTMP] | 35 nM | > 10000 nM
5 | COC(=O)[C@H](c1ccccc1)[C@@H]1CCCCN1C [TMPNMe] | 499 nM | > 10000 nM
6 | CCCCN1CCCC[C@H]1[C@H](CO)c1ccccc1 [TROHNBn] | 23.7 nM | 204 nM
7 | COC(=O)[C@H](c1cccc(Cl)c1)[C@@H]1CCCCN1 [3CTMP] | 5.1 nM | > 10000 nM
8 | COC(=O)[C@H](c1ccc(N)cc1)[C@@H]1CCCCN1 [4ATMP] | 34.5 nM | > 10000 nM
9 | COC(=O)[C@H](c1ccccc1)[C@@H]1CCCCN1 [TMP] |  | > 10000 nM
10 | COC(=O)[C@H](c1ccc(C)cc1)[C@@H]1CCCCN1C [4MeTMPNMe] | 140 nM | 1110 nM
11 | COC(=O)[C@H](c1ccc(Cl)c(Cl)c1)[C@@H]1CCCCN1 [3,4CTMP] | 5.3 nM | 
